IC50 and EC50 data for 19 molecules are collected here from patent publication US20240246964A1 (Arbutus Biopharma Corporation, priority 2021, published 2024).

Molecules are shown by their SMILES. Bounds are passed on as bounds.

The target of experiment [1] is PD-L1 His protein / PD-1 Fc protein (Homo sapiens (Human), UniProt Q9NZQ7). Briefly: HTRF Assay (PD-1/PD-L1 interaction). Conditions: PD-L1 His 6 nM, PD-1 Fc 6 nM. It is filed as binding.
The next experiment deals with human PD-L1 (Homo sapiens (Human), UniProt Q9NZQ7). Kind of experiment: T cell activation luciferase reporter cell culture system (T Cell Activation Assay). It is filed as cell-based. Conditions: luciferase reporter assay; PD-L1 aAPC/CHO-K1 cells with PD-1 effector Jurkat T cells.
Chain of human PD-L1 (Q9NZQ7 19-290): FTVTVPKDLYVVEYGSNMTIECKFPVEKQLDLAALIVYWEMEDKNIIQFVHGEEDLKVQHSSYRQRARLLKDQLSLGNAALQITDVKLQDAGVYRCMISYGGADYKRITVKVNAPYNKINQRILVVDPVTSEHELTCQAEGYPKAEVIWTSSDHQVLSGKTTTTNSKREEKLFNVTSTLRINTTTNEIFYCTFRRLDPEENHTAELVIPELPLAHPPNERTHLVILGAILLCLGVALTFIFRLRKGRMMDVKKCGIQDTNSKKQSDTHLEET

Chain of PD-L1 His protein / PD-1 Fc protein (Q9NZQ7 19-238): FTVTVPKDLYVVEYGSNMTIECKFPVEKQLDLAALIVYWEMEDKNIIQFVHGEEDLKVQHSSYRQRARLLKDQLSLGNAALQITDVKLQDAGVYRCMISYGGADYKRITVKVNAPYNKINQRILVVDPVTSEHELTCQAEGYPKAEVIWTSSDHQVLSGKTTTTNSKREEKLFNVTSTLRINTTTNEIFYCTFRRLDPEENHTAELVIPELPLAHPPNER

What is called IC50 is the midpoint of a concentration-inhibition curve. A word on the EC50: it is the concentration giving half of the maximal effect. Higher therefore signals weaker potency. For the molecule `COc1cc(-c2nccc(-c3cccc(-c4ccc(CNC5CCN(C(C)=O)CC5)c(OC)n4)c3Cl)c2Cl)ccc1CN[C@H]1CCOC1=O` [Example 340, (S)-3-((4-(4-(3-(5-(((1-Acetylpiperidin-4-yl)amino)methyl)-6-methoxypyridin-2-yl)-2-chlorophenyl)-3-chloropyridin-2-yl)-2-methoxybenzyl)amino)dihydrofuran-2(3H)-one], inhibition in experiment [1] was half-maximal at 0.0001 µM (IC50). Also, the EC50 at human PD-L1 came out at 0.523 µM.

`COc1cc(-c2nccc(-c3cccc(-c4ccc(CN5CC6(CCC(=O)N6)C5)c(OC)n4)c3Cl)c2Cl)cnc1CN1CC2(CCC(=O)N2)C1` [Compound 430, 2-((3-Chloro-4-(2-chloro-3-(6-methoxy-5-((6-oxo-2,5-diazaspiro[3.4]octan-2-yl)methyl)pyridin-2-yl)phenyl)-5′-methoxy-[2,3′-bipyridin]-6′-yl)methyl)-2,5-diazaspiro[3.4]octan-6-one] had an IC50 in experiment [1] of 0.00035 µM. The molecule also had an EC50 on human PD-L1 of 0.0233 µM.

`COc1nc(-c2cccc(-c3ccnc(-c4ccc5nc([C@H]6N[C@@H]7CC[C@H]6C7)[nH]c5c4)c3Cl)c2Cl)ccc1CNC[C@@H]1CCC(=O)N1` [Compound 152, (S)-5-((((6-(3-(2-(2-((1R,3S,4S)-2-azabicyclo[2.2.1]heptan-3-yl)-1H-benzo[d]imidazol-6-yl)-3-chloropyridin-4-yl)-2-chlorophenyl)-2-methoxypyridin-3-yl)methyl)amino)methyl)pyrrolidin-2-one]: inhibition in experiment [1] was half-maximal at 0.00257 µM (IC50). At human PD-L1, this molecule gave an EC50 of no less than 10 µM.

For the molecule `COc1nc(-c2ccnc(-c3cccc(NC(=O)c4ccc(CNCCO)cn4)c3C)c2Cl)ccc1CNC1CCOCC1` [Example 766, N-(3-(3′-Chloro-6-methoxy-5-(((tetrahydro-2H-pyran-4-yl)amino)methyl)-[2,4′-bipyridin]-2′-yl)-2-methylphenyl)-5-(((2-hydroxyethyl)amino)methyl)picolinamide], in experiment [1], the IC50 is 0.00032 µM. Further, on human PD-L1, the EC50 turned out to be 0.152 µM.

In experiment [1], `COc1cc(-c2nccc(-c3cccc(-c4ccc(CNC5CC6(C5)CN(C(C)=O)C6)c(OC)n4)c3C(F)(F)F)c2Cl)ccc1CNC1CC2(C1)CN(C(C)=O)C2` (centres unmarked) [Example 651, 1-(6-(((6-(3-(2-(4-(((2-Acetyl-2-azaspiro[3.3]heptan-6-yl)amino)methyl)-3-methoxyphenyl)-3-chloropyridin-4-yl)-2-(trifluoromethyl)phenyl)-2-methoxypyridin-3-yl)methyl)amino)-2-azaspiro[3.3]heptan-2-yl)ethan-1-one] yielded an IC50 of 0.00406 µM. In addition, the EC50 on human PD-L1 was no less than 10 µM.

In turn, `COc1cc(-c2nccc(-c3cccc(-c4ccc(CNC5CCN(C(C)=O)CC5)c(OC)n4)c3Cl)c2Cl)ccc1CN[C@@H]1COC(=O)C1` [Example 338, (S)-4-((4-(4-(3-(5-(((1-Acetylpiperidin-4-yl)amino)methyl)-6-methoxypyridin-2-yl)-2-chlorophenyl)-3-chloropyridin-2-yl)-2-methoxybenzyl)amino)dihydrofuran-2(3H)-one] showed a concentration for half-maximal inhibition (IC50) in experiment [1] of 0.00017 µM. For the same molecule, the EC50 on human PD-L1 was found to be 0.0963 µM.

Take `COc1nc(-c2cccc(-c3ccnc(-c4ccc5c(c4)CN(CCNC[C@@H]4CCC(=O)N4)C5=O)c3Cl)c2Cl)ccc1CNC[C@H](C)O` [Compound 142, 5-(3-chloro-4-(2-chloro-3-(5-((((S)-2-hydroxypropyl)amino)methyl)-6-methoxypyridin-2-yl)phenyl)pyridin-2-yl)-2-(2-((((S)-5-oxopyrrolidin-2-yl)methyl)amino)ethyl)isoindolin-1-one]: in experiment [1], the IC50 stood at 0.00666 µM. This molecule came in with an EC50 on human PD-L1 of 3.38 µM.

Consider `COc1nc(-c2ccnc(-c3cccc4c3CC[C@@H]4Nc3nc(OC)c(CN4CC5(C4)CN(C(C)=O)C5)nc3C(F)(F)F)c2Cl)ccc1CN1CC2(C1)CN(C(C)=O)C2` [Example 305, (S)-1-(6-((5-((4-(5-((6-Acetyl-2,6-diazaspiro[3.3]heptan-2-yl)methyl)-3′-chloro-6-methoxy-[2,4′-bipyridin]-2′-yl)-2,3-dihydro-1H-inden-1-yl)amino)-3-methoxy-6-(trifluoromethyl)pyrazin-2-yl)methyl)-2,6-diazaspiro[3.3]heptan-2-yl)ethan-1-one], for which, in experiment [1], inhibition was half-maximal at 0.00496 µM (IC50). This molecule gave an EC50 on human PD-L1 of no less than 10 µM.

For the molecule `COc1cc(-c2ncnc(-c3cccc(-c4ccc(CNC5CCN(C(C)=O)CC5)c(OC)n4)c3Cl)c2Cl)ccc1CNC1CCN(C(C)=O)CC1` [Example 540, 1-(4-(((6-(3-(6-(4-(((1-Acetylpiperidin-4-yl)amino)methyl)-3-methoxyphenyl)-5-chloropyrimidin-4-yl)-2-chlorophenyl)-2-methoxypyridin-3-yl)methyl)amino)piperidin-1-yl)ethan-1-one], in experiment [1], the IC50 was 0.0005 µM. Also, the concentration for a half-maximal effect (EC50) at human PD-L1 came to 0.0866 µM.

With `COc1nc(-c2ccnc(-c3cccc4c3CC[C@@H]4Nc3nc(OC)c(CN4CC5(CNC(=O)C5)C4)nc3C(F)(F)F)c2Cl)ccc1CN1CC2(CNC(=O)C2)C1` [Example 304, (S)-2-((3′-chloro-6-methoxy-2′-(1-((6-methoxy-5-((7-oxo-2,6-diazaspiro[3.4]octan-2-yl)methyl)-3-(trifluoromethyl)pyrazin-2-yl)amino)-2,3-dihydro-1H-inden-4-yl)-[2,4′-bipyridin]-5-yl)methyl)-2,6-diazaspiro[3.4]octan-7-one], in experiment [1], the IC50 was 0.00651 µM. The midpoint of the response at human PD-L1, the EC50, lay at 0.197 µM.

Take `CCNCc1cn(C)c2cc(-c3nccc(-c4cccc(-c5ccc(CNC[C@@H]6CCC(=O)N6)c(OC)n5)c4Cl)c3Cl)ccc12` [Compound 32, (S)-5-((((6-(2-chloro-3-(3-chloro-2-(3-((ethylamino)methyl)-1-methyl-1H-indol-6-yl)pyridin-4-yl)phenyl)-2-methoxypyridin-3-yl)methyl)amino)methyl)pyrrolidin-2-one]: in experiment [1], the IC50 was 0.0007 µM. On human PD-L1, this molecule showed an EC50 of 0.261 µM.

As for `COc1cc(-c2nccc(-c3cccc(-c4ccc(CNC5CCN(c6ccncc6)CC5)c(OC)n4)c3Cl)c2Cl)ccc1CNC1CCN(c2ccncc2)CC1` [Example 424, N-((6-(2-Chloro-3-(3-chloro-2-(3-methoxy-4-(((1-(pyridin-4-yl)piperidin-4-yl)amino)methyl)phenyl)pyridin-4-yl)phenyl)-2-methoxypyridin-3-yl)methyl)-1-(pyridin-4-yl)piperidin-4-amine], the IC50 in experiment [1] came to 0.00359 µM. In addition, the midpoint of the response at human PD-L1, the EC50, lay at 0.0866 µM.

In turn, `COc1cc(-c2nccc(-c3cccc(-c4ccc(CN5CC6(CNC(=O)C6)C5)c(OC)n4)c3Cl)c2Cl)ccc1CN1CCC(NC(C)=O)CC1` [Example 400, N-(1-(4-(3-chloro-4-(2-chloro-3-(6-methoxy-5-((7-oxo-2,6-diazaspiro[3.4]-octan-2-yl)methyl)pyridin-2-yl)-phenyl)pyridin-2-yl)-2-methoxybenzyl)piperidin-4-yl)acetamide] displayed an IC50 in experiment [1] of 0.000272 µM. Further, on human PD-L1, a half-maximal effect (EC50) was put at 0.0164 µM.

In the case of `COc1cc(-c2nccc(-c3cccc(-c4ccc(CN5CC6(CNC(=O)C6)C5)c(OC)n4)c3Cl)c2Cl)ccc1CN1CC2(CNC2)C1` [Example 494, 2-((6-(3-(2-(4-((2,6-Diazaspiro[3.3]heptan-2-yl)methyl)-3-methoxyphenyl)-3-chloropyridin-4-yl)-2-chlorophenyl)-2-methoxypyridin-3-yl)methyl)-2,6-diazaspiro[3.4]-octan-7-one], the IC50 in experiment [1] came out at 0.00521 µM. On human PD-L1, this molecule displayed an EC50 of 0.0617 µM.

Regarding `COc1nc(-c2ccnc(-c3cccc4c3CC[C@@H]4Oc3nc(OC)c(CNC4CCOCC4)cc3C(F)(F)F)c2Cl)ccc1CN1CC2(CNC(=O)C2)C1` [Example 552, (S)-2-((3′-Chloro-6-methoxy-2′-(1-((6-methoxy-5-(((tetrahydro-2H-pyran-4-yl)amino)methyl)-3-(trifluoromethyl)pyridin-2-yl)oxy)-2,3-dihydro-1H-inden-4-yl)-[2,4′-bipyridin]-5-yl)methyl)-2,6-diazaspiro[3.4]octan-7-one], half-maximal inhibition in experiment [1] (IC50) was put at 0.00025 µM. Besides, at human PD-L1, the EC50 was found to be 0.144 µM.

For `COc1cc(-c2nccc(-c3cccc(-c4ccc(CN[C@H]5C[C@](C)(O)C5)c(OC)n4)c3Cl)c2Cl)cc2c1CN(C[C@H](C)O)CC2` [Compound 215, (1r,3r)-3-(((6-(2-chloro-3-(3-chloro-2-(2-((S)-2-hydroxypropyl)-8-methoxy-1,2,3,4-tetrahydroisoquinolin-6-yl)pyridin-4-yl)phenyl)-2-methoxypyridin-3-yl)methyl)amino)-1-methylcyclobutan-1-ol], the IC50 in experiment [1] was 0.00558 µM. This molecule displayed an EC50 at human PD-L1 of 0.0255 µM.

As for `COc1cc(-c2nccc(-c3cccc(-c4ccc(CNC[C@H]5CNC(=O)C5)c(OC)n4)c3Cl)c2Cl)ccc1CNC[C@H]1CNC(=O)C1` [Example 405, (S)-4-((((6-(2-Chloro-3-(3-chloro-2-(3-methoxy-4-(((((S)-5-oxopyrrolidin-3-yl)methyl)amino)methyl)phenyl)pyridin-4-yl)phenyl)-2-methoxypyridin-3-yl)methyl)amino)methyl)pyrrolidin-2-one], the concentration for half-maximal inhibition (IC50) in experiment [1] came out at 0.000237 µM. The same molecule displayed an EC50 on human PD-L1 of 0.024 µM.

Regarding `COc1nc(-c2ccnc(-c3cccc4c3CC[C@@H]4Oc3nc(OC)c(CNC4CCN(C(C)=O)CC4)cc3C(F)(F)F)c2Cl)ccc1CNC1CCN(C(C)=O)CC1` [Example 254, (S)-1-(4-(((6-((4-(5-(((1-Acetylpiperidin-4-yl)amino)methyl)-3′-chloro-6-methoxy-[2,4′-bipyridin]-2′-yl)-2,3-dihydro-1H-inden-1-yl)oxy)-2-methoxy-5-(trifluoromethyl)pyridin-3-yl)methyl)amino)piperidin-1-yl)ethan-1-one], in experiment [1], the IC50 is 0.0943 µM. The EC50 at human PD-L1 was 0.148 µM.

`COc1nc(-c2ccnc(-c3cccc4c3CC[C@@H]4Oc3nc(OC)c(CNC[C@@H]4CCC(=O)N4)cc3C(F)(F)F)c2Cl)ccc1CNC1CCOCC1` [Example 686, (S)-5-((((6-(((S)-4-(3′-chloro-6-methoxy-5-(((tetrahydro-2H-pyran-4-yl)amino)methyl)-[2,4′-bipyridin]-2′-yl)-2,3-dihydro-1H-inden-1-yl)oxy)-2-methoxy-5-(trifluoromethyl)pyridin-3-yl)methyl)amino)methyl)pyrrolidin-2-one] displayed an IC50 in experiment [1] of 0.0149 µM. Further, a half-maximal effect at human PD-L1 (EC50) was put at 0.0111 µM.
